Data from paper PMC11345766, “Computational Design of Pore-Forming Peptides with Potent Antimicrobial and Anticancer Activities” (Journal of Medicinal Chemistry, 2024).
Ends that are not written are not given here.

Legend:
HCT-15 = experiment: cells; format: cell-based, human; settings: 72 h
Description: (§1) The CellTiter-Glo luminescent cell viability assay examining the impact of peptides on 22 different human cell lines was purchased from Reaction Biology Europe GmbH (Germany). Cells were cultured in different media (Table S1), seeded into a flat-bottom 96-well plate, and incubated at 37 °C. After overnight incubation, test compounds were added with 1% PBS/0.3% Tween 20 and the reference compound bortezomib was added with 0.1% DMSO. Negative controls were solvents alone, and positive control was 10 μM staurosporine. After 72 h of incubation at 37 °C, 5 or 10% CO2 (dependent on the medium), and 1 h equilibration at room temperature, well plates were treated with CellTiter-Glo reagent (Promega) for an hour and luminescence was measured using a luminometer.
(§2) Table S1. In vitro activity against 22 different human cancer cell lines.
(§3) Sr. Cancer Activity (in M)
(§4) no. Cell line type Culture medium
(§5) The effect of investigated compounds on the proliferation of 22 different human cell lines is
(§6) Twenty of these 22 cell lines represent specific cancer types and 2 were non-cancerous. Peptide
(§7) Anticancer drug bortezomib was used as the […]

MDA MB 435 = experiment: cells; format: cell-based, human; settings: 72 h
Description: as §1, §2, §3, §4, §5, §6, §7

RPMI 8226 = experiment: cells; format: cell-based, human; settings: 72 h
Description: as §1, §2, §3, §4, §5, §6, §7

OVCAR-3 = experiment: cells; format: cell-based, human; settings: 72 h
Description: as §1, §2, §3, §4, §5, §6, §7

[1] = system: A. baumannii (NCTC 13301); experiment: Murine excisional dorsal wound infection model; format: in vivo, mouse; settings: for Survival: day 3 postinfection
Description: To investigate wound-healing applications, two peptides (LP1 and LP18) were tested in a murine wound infection model.[57] Immunosuppressed mice were infected with 5 × 10^4 cells per mL of A. baumannii (NCTC 13301) at the excised dorsal wound. The peptides at 1000 times the MICs (∼10 mg/kg) were applied directly to the wound by puncturing the dressing with a syringe once a day for 7 days. After removal of the dressing, necrosis of the epidermal tissue at the wound edges and wound expansion were observed. These conditions were reduced in the LP1-treated group, followed by the LP18-treated, PBS-treated, and untreated groups (Figure S6a,b). Contractile wound healing appeared to be higher in the LP1-treated group compared to the other groups. After 20 days, LP1-treated wounds were either completely closed or had less than 10 mm^2 of overlying serocellular crust, whereas the other wounds had larger and more inflamed serocellular crusts.
Eight-to-ten-week-old female Balb/c mice (obtained from Envigo, Netherlands) were subjected to immunosuppression induction by two intraperitoneal doses of 150 and 100 mg/kg cyclophosphamide on days −4 and −1, respectively, before wounding. On day 0 of wounding, mice were anesthetized with isoflurane and the dorsal region was shaved and scrubbed with iodine solution. A full-thickness skin defect was created over the thoracic spine using a 6 mm disposable skin biopsy punch (KAI Industries Co., Ltd., Japan). Infection was established by applying 25 μL of A. baumannii NCTC 13301 (5 × 10^4 CFU/mL) applied directly to the wound and allowed to absorb for 2 min. Wound was covered with a transparent sterile dressing (Tegaderm, Deutschland GmbH, Germany) and secured with tissue adhesive (Surgibond, SMI AG, Belgium). Afterward, mice received an intramuscular injection of buprenorphine (0.05 mg/kg). […] From 10^–3, 10^–5, and 10^–7 dilutions, 100 μL of the sample was collected three times, incubated on MacConkey agar plates (Trios, Czech Republic), and analyzed for viable cell counts. […]

Row | Substance | IC50 (HCT-15) | IC50 (MDA MB 435) | IC50 (RPMI 8226) | IC50 (OVCAR-3) | Survival [1] | Overlying serocellular crust of wound ([1]; topical, 1000 times the MIC (∼10 mg/kg) once a day for 7 days, after 20 days)
1 | H-HHHHLKKILKKLFQFINQLDNQLQDIHHHH-OH [LP40] | 7.1 µM | 190 µM | 5.6 µM | 9 µM | – | –
2 | KKKKLKKILKKLFQFINQLDNQLQDIKQNK-NH2 [LP1] | 4.7 µM | 1.4 µM | 4.4 µM | 4.9 µM | 100% | less than 10 mm^2
3 | KKKKLKKILKKLFQFINQLDNQLQDIKKKK-NH2 [LP18] | – | – | – | – | 100% | –
